{"source": "patent US20130184270A1", "about": "“SUBSTITUTED 2,3-DIHYDROIMIDAZO[1,2-C]QUINAZOLINE-CONTAINING COMBINATIONS” (priority 2010, published 2013)", "key": {"[1]": {"tested_on": "Lu7187 primary human tumor (NSCLC)", "conditions": "for sensitivity of the model / T/C / animals with disease progression: Lu7187; for animals with disease progression: respective monotherapy groups", "procedure": "(§1) The in vivo combination effects were evaluated in tumor xenograft models in nude mice with either established human tumor cell lines or patient-derived primary tumor models at the MTD and sub-MTD dosages.\nLu7187 primary human tumor was derived from a patient with NSCLC and was xenografted in nude mice. The tumor was propagated in vivo and tumor tissue from one in vivo passage was used for s.c. implantation in the inguinal region of male nude mice. Treatment was started when the tumors were approximately 0.1 cm^3 in size. Treatment was continued until progression of the tumors. Tumor diameters and body weight were monitored t weekly. cA* was dosed at 14 mg/kg, Q2D×10 from day 7 to day 25 (group C, H and I), or 10 mg/kg, BID×1 weekly on day 7, 14, 21 and 28. cB was dosed at either 12.5 mg/kg (group D, F and H), QD, or 25 mg/kg (group E, G and I), QD from day 7 to day 35."}, "[2]": {"tested_on": "Lu7343 primary human tumor (NSCLC)", "experiment": "patient-derived NSCLC xenograft model, cA plus paclitaxel (text: Lu7187; FIG. 5: Lu7343)", "type": "in vivo, nude mice", "procedure": "as §1\nThe synergistic combination of cA* and palitaxel was also confirmed in a patient-derived NSCLC xenograft model—Lu7187.\nFIG. 5: Dose-dependent tumor growth inhibition in Lu7343 primary human xenograft NSCLC model. Lu7343 primary human tumor was derived from a patient with NSCLC and was xenografted in nude mice. The tumor was propagated in vivo and tumor tissue from one in vivo passage was used for s.c. implantation in the inguinal region of male nude mice. Treatment was started when the tumors were approximately 0.1 cm^3 in size. Treatment was continued until progression of the tumors. Tumor diameters and body weight were monitored t weekly. cA* was dosed at 10 mg/kg, BIDx1 weekly on day 15, 22, and 29. paclitaxel was dosed at either 15 mg/kg, or 25 mg/kg, once a week on day 14, 21 and day 28."}, "[3]": {"tested_on": "Co5841 primary human tumor (CRC)", "experiment": "Co5841 primary human xenograft CRC model", "type": "in vivo, nude mice", "procedure": "as §1\nFIG. 3: Dose-dependent tumor growth inhibition in Co5841 primary human xenograft CRC model. Co5841 primary human tumor was derived from a patient with CRC and was xenografted in nude mice. The tumor was propagated in vivo and tumor tissue from one in vivo passage was used for s.c. implantation in the inguinal region of male nude mice. Treatment was started when the tumors were approximately 0.1 cm^3 in size. Treatment was continued until progression of the tumors. Tumor diameters and body weight were monitored weekly. cA* was dosed at 14 mg/kg, Q2D×7 from day 6 to day 22 (group C, H and I), or 10 mg/kg, BID×1 weekly on day 6, 13, and 20. cB was dosed at either 12.5 mg/kg (group D, F and H), QD, […]"}, "[4]": {"tested_on": "NCI-H1975, NCI-H1650, HCT116, Colo205, MDA-MB-468 cell lines", "experiment": "caspase 3/7 activation assay, example (cell line not named)", "type": "cell-based", "procedure": "The effects of combinations of the present invention were evaluated using combination index isobologram analysis for in vitro assessment. The efficacy parameters were the effects in a 72-hour cell proliferation assay or in a 48-hour caspase 3/7 activation assay. Briefly, cells were plated in 384-well plate with 25 μL medium. […] Experiments were conducted in triplicates. The mapping EC50/IC50 and EC90/IC90 values were calculated using Analyze5 computer program. The corresponding component concentrations of cA and BB (either cB, or Lapatinib, or paclitaxel (as component B)) at the […] were calculated and used for plotting isobolograms. […] The dose-response curve of either cA* or cB alone, or cA* (as component A) plus cB (as component B) with the ratio indicated in the figure, where the top relative concentrations are defined as 1."}, "[5]": {"tested_on": "CRC SW620 Tumor Cell Line", "experiment": "72-hour cell proliferation assay (Cell Titer Glo), combination index", "type": "cell-based", "conditions": "Homo sapiens, SW-620; SW620, single agent, 90% inhibition not reached", "procedure": "The effects of combinations of the present invention were evaluated using combination index isobologram analysis for in vitro assessment. The efficacy parameters were the effects in a 72-hour cell proliferation assay or in a 48-hour caspase 3/7 activation assay. Briefly, cells were plated in 384-well plate with 25 μL medium. […] Experiments were conducted in triplicates. The mapping EC50/IC50 and EC90/IC90 values were calculated using Analyze5 computer program. The corresponding component concentrations of cA and BB (either cB, or Lapatinib, or paclitaxel (as component B)) at the […] were calculated and used for plotting isobolograms. […] IC50 and IC90 refers to the IC50 and IC90 obtained from the dose-response curve of either cA* or cB alone, or cA* plus cB with the ratio indicated in the table, where the top relative concentration is defined as 1."}}, "note": "Where two headings read alike, the source gives them in different places."}
{"smiles": "CC(=O)O[C@H]1C(=O)[C@@]2(C)[C@H]([C@H](OC(=O)c3ccccc3)[C@]3(O)C[C@H](OC(=O)[C@H](O)[C@@H](NC(=O)c4ccccc4)c4ccccc4)C(C)=C1C3(C)C)[C@]1(OC(C)=O)CO[C@@H]1C[C@@H]2O", "note": "[Paclitaxel]", "values": [{"measurement": "sensitivity of the model", "setting": "[1]", "value": "resistant"}, {"measurement": "single agent efficacy", "setting": "[2]; paclitaxel 25 mg/kg (MTD)", "value": "very efficacious"}, {"measurement": "mice with disease progression after stopping the treatment", "setting": "[2]; paclitaxel 25 mg/kg single agent", "value": 60, "unit": "%"}]}
{"smiles": "COc1c(OCCCN2CCOCC2)ccc2c1N=C(NC(=O)c1cnc(N)nc1)N1CCN=C21", "note": "[cA, 2-amino-N-[7-methoxy-8-(3-morpholin-4-ylpropoxy)-2,3-dihydroimidazo[1,2-c]quinazolin-5-yl]pyrimidine-5-carboxamide]", "values": [{"measurement": "T/C", "setting": "[1]; cA 10 mg/kg BID weekly (day 7, 14, 21, 28)", "value": 0.88}, {"measurement": "animals with disease progression", "setting": "[1]", "value": 100, "unit": "%"}, {"measurement": "body weight loss of weekly dosing compared with Q2D dosing", "setting": "[1]; mouse, in vivo", "value": "less body weight loss"}, {"measurement": "T/C", "setting": "[3]; cA 10 mg/kg BID weekly (day 6, 13, 20)", "value": 0.49}, {"measurement": "animals with disease progression (DP)", "setting": "[3]; cA 10 mg/kg BID weekly monotherapy", "value": 90, "unit": "%"}, {"measurement": "animals with disease progression (DP)", "setting": "[3]; cA 14 mg/kg Q2D monotherapy", "value": 100, "unit": "%"}, {"measurement": "T/C", "setting": "[3]; cA 14 mg/kg Q2D, day 6 to 22", "value": 0.39}, {"measurement": "induction of apoptosis (caspase 3/7), single agent", "setting": "[4]; 5 μM", "value": "Neither 10 μM of cB nor 5 μM of cA as single agents could induce apoptosis"}, {"measurement": "IC90", "setting": "[5]", "value": "> 5", "unit": "µM"}]}
{"smiles": "COc1cc([C@@H]2c3cc4c(cc3[C@@H](O[C@@H]3O[C@@H]5CO[C@@H](C)O[C@H]5[C@H](O)[C@H]3O)[C@H]3COC(=O)[C@H]23)OCO4)cc(OC)c1O", "note": "[etoposid, reference compound]", "values": [{"measurement": "sensitivity of the model", "setting": "[1]", "value": "resistant"}]}
{"smiles": "COc1cc(F)c(F)c(Nc2ccc(I)cc2F)c1NS(=O)(=O)C1(C[C@H](O)CO)CC1", "note": "[cB, (S)—N-(3,4-difluoro-2-(2-fluoro-4-iodophenylamino)-6-methoxyphenyl)-1-(2,3-dihydroxypropyl)cyclopropane-1-sulfonamide]", "values": [{"measurement": "T/C", "setting": "[1]; cB 12.5 mg/kg daily, day 7 to 35", "value": 0.46}, {"measurement": "T/C", "setting": "[1]; cB 25 mg/kg daily, day 7 to 35", "value": 0.31}, {"measurement": "animals with disease progression", "setting": "[1]", "value": 100, "unit": "%"}, {"measurement": "T/C", "setting": "[3]; cB 12.5 mg/kg daily, day 6 to 23", "value": 0.35}, {"measurement": "animals with disease progression (DP)", "setting": "[3]; cB 25 mg/kg monotherapy", "value": 70, "unit": "%"}, {"measurement": "induction of apoptosis (caspase 3/7), single agent", "setting": "[4]; 10 μM", "value": "Neither 10 μM of cB nor 5 μM of cA as single agents could induce apoptosis"}, {"measurement": "IC90", "setting": "[5]", "value": "> 5", "unit": "µM"}]}
{"smiles": "C#Cc1cccc(Nc2ncnc3cc(OCCOC)c(OCCOC)cc23)c1", "note": "[erlotinib, reference compound]", "values": [{"measurement": "sensitivity of the model", "setting": "[1]", "value": "resistant"}]}
